Converted amounts (≈) assume the structure as drawn. “And” between values parts separate entries of the source, which are not always exact repeats. Identical values can stand only once.
How the values were obtained:
Assay in all cases: Broth microdilution MIC, Example 7 (NCL812 and analogues)
[1] = tested on: Escherichia coli; assay type: cell-based; settings: 24 hours
[2] = tested on: VRE; assay type: cell-based, Enterococcus spp.; settings: for activity against VRE among analogues: MIC testing, two VRE strains
In short: (§1)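 CLSI broth microdilution against two MRSA and two VRE strains, tested in duplicate with a third run if results differed by more than one two-fold dilution.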

[3] = tested on: Pseudomonas aeruginosa; assay type: cell-based; settings: 24 hours
[4] = tested on: MRSA; assay type: cell-based, Staphylococcus aureus
In short: as §1

[5] = isolate VRE 1, 24 hours, 1st and 2nd replicate rows
[6] = isolate VRE 2, 24 hours, 1st and 2nd replicate rows
[7] = isolate MRSA 1, 24 hours, 1st and 2nd replicate rows
[8] = isolate MRSA 2, 24 hours, 1st and 2nd replicate rows
[9] = E. coli, duplicate lines per compound
[10] = VRE 1, 24 hours, duplicate lines per compound
[11] = VRE 2, 24 hours, duplicate lines per compound
[12] = P. aeruginosa, duplicate lines per compound
[13] = MRSA 1, 24 hours, duplicate lines per compound
[14] = MRSA 2, 24 hours, duplicate lines per compound

| Structure (SMILES) | MIC (μg/ml) at 24 hours, E. coli ([1]; 1st and 2nd replicate rows) [µg/mL] | MIC (μg/ml) at 24 hours, VRE 1 [2, 5] [µg/mL] | MIC (μg/ml) at 24 hours, VRE 2 [2, 6] [µg/mL] | MIC (μg/ml) at 24 hours, P. aeruginosa ([3]; 1st and 2nd replicate rows) [µg/mL] | MIC (μg/ml) at 24 hours, MRSA 1 [4, 7] [µg/mL] | MIC (μg/ml) at 24 hours, MRSA 2 [4, 8] [µg/mL] | MIC (μg/ml) at 24 hours, E. coli [1, 9] [µg/mL] | MIC (μg/ml) at 24 hours, VRE 1 [2, 10] [µg/mL] | MIC (μg/ml) at 24 hours, VRE 2 [2, 11] [µg/mL] | MIC (μg/ml) at 24 hours, P. aeruginosa [3, 12] [µg/mL] | MIC (μg/ml) at 24 hours, MRSA 1 [4, 13] | MIC (μg/ml) at 24 hours, MRSA 2 [4, 14] | other results |
| --- | --- | --- | --- | --- | --- | --- | --- | --- | --- | --- | --- | --- | --- |
| Cl.N=C(N/N=C/c1ccccc1Cl)N/N=C/c1ccccc1Cl [NCL020] | >128 | >128 | >128 | >128 | >128 | >128 | – | – | – | – | – | – | – |
| N=C(N/N=C/c1ccc(Cl)cc1)N(/N=C/c1ccc(Cl)cc1)C(=O)NCc1ccccc1 [NCL227] | – | – | – | – | – | – | – | – | – | – | – | – | MIC (μg/ml) at 24 hours, E. coli ([1]; E. coli): >128 µg/mL; MIC (μg/ml) at 24 hours, VRE 1 ([2]; VRE 1, 24 hours): >128 µg/mL; MIC (μg/ml) at 24 hours, VRE 2 ([2]; VRE 2, 24 hours): >128 µg/mL; MIC (μg/ml) at 24 hours, P. aeruginosa ([3]; P. aeruginosa): >128 µg/mL; MIC (μg/ml) at 24 hours, MRSA 1 ([4]; MRSA 1, 24 hours): >128 µg/mL; MIC (μg/ml) at 24 hours, MRSA 2 ([4]; MRSA 2, 24 hours): >128 µg/mL |
| FC(F)(F)c1ccc(-c2nnc(Nc3ccc(Cl)cc3)[nH]2)cc1 [NCL091] | – | – | – | – | – | – | >128 | >128 | >128 | >128 | >128 µg/mL | >128 µg/mL | – |
| NC(=O)N/N=C/c1ccccc1C(F)(F)F [NCL060] | >128 | >128 | >128 | >128 | >128 | >128 | – | – | – | – | – | – | – |
| Cc1cccc(C=NNC(=O)NN=Cc2cccc(C)c2)c1 [NCL019] | >128 | >128 | >128 | >128 | >128 | >128 | – | – | – | – | – | – | – |
| Cl.N=C(N)NN=Cc1cccc(F)c1 [NCL017] | >128 | >128 | >128 | >128 | >128 | >128 | – | – | – | – | – | – | – |
| Cl.N=C(N/N=C/c1ccc(Cl)cc1Cl)N/N=C/c1ccc(Cl)cc1Cl [NCL 127] | – | – | – | – | – | – | >128 | >128 | >128 | >128 | >128 µg/mL | >128 µg/mL | – |
| Cl.N=C(NNCc1ccccc1)NNCc1ccccc1 [NCL 142] | – | – | – | – | – | – | >128 | >128 | >128 | >128 | >128 µg/mL | >128 µg/mL | – |
| Nc1nc(N/N=C/c2ccc(Br)cc2)nc(N/N=C/c2ccc(Br)cc2)n1 [NCL212] | – | – | – | – | – | – | – | – | – | – | – | – | MIC (μg/ml) at 24 hours, E. coli ([1]; E. coli): >128 µg/mL; activity against VRE among analogues [2]: greatest activity; MIC (μg/ml) at 24 hours, VRE 1 ([2]; VRE 1, 24 hours): 32 µg/mL (≈ 65.3 µM); MIC (μg/ml) at 24 hours, VRE 2 ([2]; VRE 2, 24 hours): 16 µg/mL (≈ 32.6 µM); VRE ([2]; bioassay ranking, VRE): 24 µg/mL; MIC (μg/ml) at 24 hours, P. aeruginosa ([3]; P. aeruginosa): >128 µg/mL; MIC (μg/ml) at 24 hours, MRSA 1 ([4]; MRSA 1, 24 hours): >128 µg/mL; MIC (μg/ml) at 24 hours, MRSA 2 ([4]; MRSA 2, 24 hours): >128 µg/mL and 128 µg/mL |
| CC(=O)Nc1cc(Cl)ccc1C=NNC(=N)NN=Cc1ccc(Cl)cc1NC(C)=O [NCL 170] | – | – | – | – | – | – | >128 | >128 | >128 | >128 | >128 µg/mL | >128 µg/mL | – |
| CC(C)c1ccc(/C=N/NC(=N)N/N=C/c2ccc(C(C)C)cc2)cc1.Cl [NCL 120] | – | – | – | – | – | – | >128 | 2 | 8 | >128 | 8 µg/mL | 4 µg/mL and 8 µg/mL | – |
| Cl.N#Cc1ccccc1/C=N/NC(=N)N [NCL032] | >128 | >128 | >128 | >128 | >128 | >128 | – | – | – | – | – | – | – |
| Cl.N=C(NN=Cc1ccc(F)c(F)c1)NN=Cc1ccc(F)c(F)c1 [NCL 123] | – | – | – | – | – | – | >128 | 4 | 4 | >128 | 16 µg/mL and 32 µg/mL | 4 µg/mL and 8 µg/mL | – |
| Cl.N=C(NN=Cc1cccc(O)c1)NN=Cc1cccc(O)c1 [NCL108] | – | – | – | – | – | – | >128 | 64 | 128 | >128 | 64 µg/mL | 64 µg/mL | activity against VRE among analogues [2]: greatest activity; activity against MRSA among analogues ([4]; MIC testing, two MRSA strains): greatest activity |
| Cl.N=C(NN=Cc1ccccc1F)NN=Cc1ccccc1F [NCL022] | >128 | >128 | >128 | >128 | >128 | >128 | – | – | – | – | – | – | – |
| Cl.N=C(NN=C(c1ccc(Cl)cc1O)C1CCCC1)NN=C(c1ccc(Cl)cc1O)C1CCCC1 [NCL 159] | – | – | – | – | – | – | >128 | 16 | 128 | >128 | 64 µg/mL | 128 µg/mL | – |
| Cl.N=C(NN=C(CO)c1ccc(Cl)cc1)NN=C(CO)c1ccc(Cl)cc1 [NCL 177] | – | – | – | – | – | – | – | – | – | – | – | – | MIC (μg/ml) at 24 hours, E. coli ([1]; E. coli): >128 µg/mL; MIC (μg/ml) at 24 hours, VRE 1 ([2]; VRE 1, 24 hours): 4 µg/mL; MIC (μg/ml) at 24 hours, VRE 2 ([2]; VRE 2, 24 hours): 8 µg/mL; MIC (μg/ml) at 24 hours, P. aeruginosa ([3]; P. aeruginosa): >128 µg/mL; MIC (μg/ml) at 24 hours, MRSA 1 ([4]; MRSA 1, 24 hours): 8 µg/mL; MIC (μg/ml) at 24 hours, MRSA 2 ([4]; MRSA 2, 24 hours): 8 µg/mL |
| Cl.N=C(NN=Cc1ccc(C=CCC(=O)O)cc1)NN=Cc1ccc(C=CCC(=O)O)cc1 [NCL 148] | – | – | – | – | – | – | >128 | >128 | >128 | >128 | >128 µg/mL | >128 µg/mL | – |
| Cl.N#Cc1ccc(C=NNC(=N)NN=Cc2ccc(C#N)cc2)cc1 [NCL024] | >128 | >128 | >128 | >128 | >128 | >128 | – | – | – | – | – | – | – |
| Cl.N=C(NN=Cc1ccc(O)c([N+](=O)[O-])c1)NN=Cc1ccc(O)c([N+](=O)[O-])c1 [NCL 122] | – | – | – | – | – | – | >128 | >128 | >128 | >128 | >128 µg/mL | >128 µg/mL | – |
| Cl.N=C(NN=Cc1c(Cl)cccc1Cl)NN=Cc1c(Cl)cccc1Cl [NCL 137] | – | – | – | – | – | – | >128 | >128 | >128 | >128 | >128 µg/mL | >128 µg/mL | – |
| Cl.N=C(NN=Cc1csc2ccc(Cl)cc12)NN=Cc1csc2ccc(Cl)cc12 [NCL 141] | – | – | – | – | – | – | >128 | 16 | >128 | >128 | >128 µg/mL | >128 µg/mL | – |
| O=C(N/N=C/c1cccc(F)c1)N/N=C/c1cccc(F)c1 [NCL004] | >128 | >128 | >128 | >128 | >128 | >128 | – | – | – | – | – | – | – |
| N=C(NN=Cc1ccc(Cl)cc1N)NN=Cc1ccc(Cl)cc1N [NCL 169] | – | – | – | – | – | – | >128 | 32 (≈ 87.9 µM) | 32 (≈ 87.9 µM) | >128 | 32 µg/mL (≈ 87.9 µM) | 64 µg/mL (≈ 176 µM) | – |
| Cc1ccccc1/C=N/NC(=O)N/N=C/c1ccccc1C [NCL018] | >128 | >128 | >128 | >128 | >128 | >128 | – | – | – | – | – | – | – |
| O=C(NN=Cc1ccc(C(F)(F)F)cc1)NN=Cc1ccc(C(F)(F)F)cc1 [NCL012] | >128 | >128 | >128 | >128 | >128 | >128 | – | – | – | – | – | – | – |
